Tests used:
[1] = target: Beta-1 adrenergic receptor (Homo sapiens) (UniProt P08588); settings: Compound concentration 10.0 uM
[2] = target: Serine/threonine-protein kinase D2 (Homo sapiens) (UniProt Q9BZL6); settings: Compound concentration 1.0 uM
[3] = target: Carbonic anhydrase (Homo sapiens) (UniProt P00918+P43166+P00915+P07451+P23280+O43570+Q9ULX7+Q16790+P22748+Q8N1Q1+Q9Y2D0+P35218); experiment: CANHYDRASE Eurofins SafetyScreen44 (BI); type: protein assay; settings: Compound concentration 10.0 uM
[4] = target: Phosphorylase b kinase gamma catalytic chain, skeletal muscle/heart isoform (Homo sapiens) (UniProt Q16816); experiment: PHKG1 Invitrogen Lab (UK) kinase screen (BI); settings: Compound concentration 1.0 uM
Sequence of Phosphorylase b kinase gamma catalytic chain, skeletal muscle/heart isoform (Homo sapiens) (Q16816 whole entry, looked up, canonical isoform): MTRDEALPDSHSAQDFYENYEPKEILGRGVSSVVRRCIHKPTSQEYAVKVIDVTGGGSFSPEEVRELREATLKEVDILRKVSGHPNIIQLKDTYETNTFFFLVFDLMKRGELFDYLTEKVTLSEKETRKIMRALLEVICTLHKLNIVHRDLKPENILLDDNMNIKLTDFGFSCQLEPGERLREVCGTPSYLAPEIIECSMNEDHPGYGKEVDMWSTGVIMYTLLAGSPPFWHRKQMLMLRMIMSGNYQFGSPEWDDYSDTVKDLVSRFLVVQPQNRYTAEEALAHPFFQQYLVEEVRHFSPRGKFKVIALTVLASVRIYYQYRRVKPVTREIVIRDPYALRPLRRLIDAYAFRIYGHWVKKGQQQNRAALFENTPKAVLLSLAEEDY

[5] = target: AP2-associated protein kinase 1 (Homo sapiens, UniProt Q2M2I8)
Sequence of AP2-associated protein kinase 1 (Q2M2I8 whole entry, looked up): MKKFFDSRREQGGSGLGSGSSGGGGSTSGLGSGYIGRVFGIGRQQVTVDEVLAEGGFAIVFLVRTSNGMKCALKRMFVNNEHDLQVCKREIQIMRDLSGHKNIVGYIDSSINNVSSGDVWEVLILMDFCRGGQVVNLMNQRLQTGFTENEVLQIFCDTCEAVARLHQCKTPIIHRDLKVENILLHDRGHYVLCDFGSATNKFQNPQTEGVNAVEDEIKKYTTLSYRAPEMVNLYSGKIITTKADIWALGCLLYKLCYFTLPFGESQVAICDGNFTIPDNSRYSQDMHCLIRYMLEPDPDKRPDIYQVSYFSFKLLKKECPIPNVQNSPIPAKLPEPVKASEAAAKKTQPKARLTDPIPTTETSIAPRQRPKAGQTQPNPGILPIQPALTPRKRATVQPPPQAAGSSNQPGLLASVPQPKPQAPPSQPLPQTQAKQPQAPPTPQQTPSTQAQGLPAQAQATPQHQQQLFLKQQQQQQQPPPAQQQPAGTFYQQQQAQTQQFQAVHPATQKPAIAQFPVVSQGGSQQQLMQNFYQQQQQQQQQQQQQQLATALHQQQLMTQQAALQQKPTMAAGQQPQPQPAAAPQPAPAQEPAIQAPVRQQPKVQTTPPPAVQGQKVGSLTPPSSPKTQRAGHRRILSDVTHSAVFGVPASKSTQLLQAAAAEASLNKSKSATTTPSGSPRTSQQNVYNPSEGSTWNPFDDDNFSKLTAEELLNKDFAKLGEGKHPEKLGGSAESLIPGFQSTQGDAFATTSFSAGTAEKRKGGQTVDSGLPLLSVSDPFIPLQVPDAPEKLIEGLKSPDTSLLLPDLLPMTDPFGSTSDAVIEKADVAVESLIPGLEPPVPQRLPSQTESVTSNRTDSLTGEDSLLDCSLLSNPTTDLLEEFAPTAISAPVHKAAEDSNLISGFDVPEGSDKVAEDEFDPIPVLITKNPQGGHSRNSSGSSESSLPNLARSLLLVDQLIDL

[6] = target: Serine/threonine-protein kinase Chk2 (Homo sapiens) (UniProt O96017); experiment: CHEK2 Invitrogen Lab (UK) kinase screen (BI); settings: Compound concentration 1.0 uM
[7] = target: Natriuretic peptides A (Cavia porcellus) (UniProt P27596); settings: Compound concentration 100.0 uM
[8] = target: Dual specificity mitogen-activated protein kinase kinase 1 (Homo sapiens) (UniProt Q02750); experiment: MKK1 DUNDEE kinase screen (BI); settings: Oryctolagus cuniculus; Compound concentration 10.0 uM
Sequence of Dual specificity mitogen-activated protein kinase kinase 1 (Homo sapiens) (Q02750 whole entry): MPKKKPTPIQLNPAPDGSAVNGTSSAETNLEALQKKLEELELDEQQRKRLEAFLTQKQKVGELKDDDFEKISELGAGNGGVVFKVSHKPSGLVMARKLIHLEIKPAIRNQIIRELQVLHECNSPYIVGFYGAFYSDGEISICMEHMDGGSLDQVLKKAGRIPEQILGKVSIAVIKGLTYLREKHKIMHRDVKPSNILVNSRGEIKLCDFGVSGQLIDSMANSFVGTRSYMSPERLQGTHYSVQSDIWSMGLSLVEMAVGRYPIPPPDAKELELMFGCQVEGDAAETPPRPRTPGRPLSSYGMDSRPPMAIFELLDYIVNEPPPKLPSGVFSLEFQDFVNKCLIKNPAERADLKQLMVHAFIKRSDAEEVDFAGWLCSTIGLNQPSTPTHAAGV

[9] = target: Cyclin-G-associated kinase (Homo sapiens, UniProt O14976); experiment: NanoBRET (SGC-FFM) (GAK)
[10] = target: Nicotinic Acetylcholine Receptor (Homo sapiens) (UniProt P02708+P07510+P11230+P17787+P30926+P32297+P43681+Q07001+Q15822+Q9UGM1+Q15825+P30532+Q04844+P36544+Q9GZZ6+Q05901); settings: Compound concentration 10.0 uM
[11] = target: Mitogen-activated protein kinase kinase kinase 11 (Homo sapiens) (UniProt Q16584); settings: Compound concentration 1.0 uM
[12] = target: Sodium-dependent noradrenaline transporter (Homo sapiens) (UniProt P23975); experiment: NETRANS/H Eurofins SafetyScreen44 (BI); settings: Compound concentration 10.0 uM
[13] = target: Phosphatidylinositol 3-kinase C2 domain-containing subunit gamma (Homo sapiens) (UniProt O75747); settings: Compound concentration 1.0 uM
[14] = target: Mitogen-activated protein kinase kinase kinase kinase 1 (Homo sapiens) (UniProt Q92918); settings: Compound concentration 1.0 uM
[15] = target: Serine/threonine-protein kinase Sgk2 (Homo sapiens) (UniProt Q9HBY8); settings: Compound concentration 1.0 uM
[16] = target: Eukaryotic elongation factor 2 kinase (Homo sapiens) (UniProt O00418); settings: Compound concentration 1.0 uM
[17] = target: Protein kinase C zeta type (Homo sapiens) (UniProt Q05513); experiment: PRKCZ Invitrogen Lab (UK) kinase screen (BI); settings: Compound concentration 1.0 uM
[18] = target: Cyclin-dependent kinase 9 (Homo sapiens) (UniProt P50750); settings: Compound concentration 1.0 uM
[19] = target: Protein kinase C delta type (Homo sapiens) (UniProt Q05655); settings: Compound concentration 1.0 uM
[20] = target: Macrophage colony-stimulating factor 1 receptor (Homo sapiens) (UniProt P07333)
Sequence of Macrophage colony-stimulating factor 1 receptor (Homo sapiens) (P07333 whole entry): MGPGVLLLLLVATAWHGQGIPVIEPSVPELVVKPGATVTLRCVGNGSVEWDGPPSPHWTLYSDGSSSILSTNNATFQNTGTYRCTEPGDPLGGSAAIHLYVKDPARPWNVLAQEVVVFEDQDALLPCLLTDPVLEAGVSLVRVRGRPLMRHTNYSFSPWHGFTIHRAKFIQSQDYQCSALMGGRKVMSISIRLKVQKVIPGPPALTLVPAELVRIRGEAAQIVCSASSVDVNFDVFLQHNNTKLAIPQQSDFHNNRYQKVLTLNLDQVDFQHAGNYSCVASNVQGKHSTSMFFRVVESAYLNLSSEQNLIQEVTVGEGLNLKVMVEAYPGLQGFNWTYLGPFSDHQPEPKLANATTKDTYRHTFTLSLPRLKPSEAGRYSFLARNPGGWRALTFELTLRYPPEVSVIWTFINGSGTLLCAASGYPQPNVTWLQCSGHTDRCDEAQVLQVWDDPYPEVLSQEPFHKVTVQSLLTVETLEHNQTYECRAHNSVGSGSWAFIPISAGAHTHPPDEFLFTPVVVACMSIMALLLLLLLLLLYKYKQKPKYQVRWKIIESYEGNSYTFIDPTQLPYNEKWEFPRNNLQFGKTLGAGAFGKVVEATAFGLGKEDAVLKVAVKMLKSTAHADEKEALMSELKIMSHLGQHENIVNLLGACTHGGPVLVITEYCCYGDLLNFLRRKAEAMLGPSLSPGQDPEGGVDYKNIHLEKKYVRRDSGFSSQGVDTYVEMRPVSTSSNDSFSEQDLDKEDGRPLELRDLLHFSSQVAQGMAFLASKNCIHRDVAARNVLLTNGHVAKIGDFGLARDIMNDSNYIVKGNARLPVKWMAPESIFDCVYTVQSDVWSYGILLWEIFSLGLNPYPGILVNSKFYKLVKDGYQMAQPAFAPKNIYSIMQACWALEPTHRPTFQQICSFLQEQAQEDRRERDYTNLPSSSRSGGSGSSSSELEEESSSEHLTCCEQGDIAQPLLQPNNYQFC

[21] = target: Serine/threonine-protein kinase MRCK beta (Homo sapiens) (UniProt Q9Y5S2); experiment: CDC42 BPB Invitrogen Lab (UK) kinase screen (BI); settings: Compound concentration 1.0 uM
[22] = target: Cyclin-dependent kinase 4/cyclin D1 (Homo sapiens) (UniProt P11802+P24385); settings: Compound concentration 1.0 uM
[23] = target: LIM domain kinase 2 (Homo sapiens) (UniProt P53671); settings: Compound concentration 1.0 uM
[24] = target: Casein kinase I isoform gamma-2 (Homo sapiens) (UniProt P78368)
Sequence of Casein kinase I isoform gamma-2 (Homo sapiens) (P78368 whole entry, looked up, canonical isoform): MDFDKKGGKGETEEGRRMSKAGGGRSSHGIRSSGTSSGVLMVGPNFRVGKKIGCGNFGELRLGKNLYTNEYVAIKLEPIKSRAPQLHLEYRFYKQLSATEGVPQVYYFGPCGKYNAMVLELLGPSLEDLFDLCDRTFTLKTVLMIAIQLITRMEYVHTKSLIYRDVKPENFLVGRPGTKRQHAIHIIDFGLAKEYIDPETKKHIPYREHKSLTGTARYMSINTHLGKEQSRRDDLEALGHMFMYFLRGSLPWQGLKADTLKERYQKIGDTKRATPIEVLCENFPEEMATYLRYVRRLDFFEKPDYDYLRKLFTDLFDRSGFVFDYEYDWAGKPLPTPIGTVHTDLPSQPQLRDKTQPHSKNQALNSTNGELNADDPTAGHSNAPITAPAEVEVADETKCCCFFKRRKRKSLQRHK

[25] = target: Ribosomal protein S6 kinase alpha-4 (Homo sapiens) (UniProt O75676); settings: Compound concentration 1.0 uM
[26] = target: Serine/threonine-protein kinase Nek7 (Homo sapiens) (UniProt Q8TDX7); experiment: NEK7 DUNDEE kinase screen (BI); settings: Compound concentration 10.0 uM
Sequence of Serine/threonine-protein kinase Nek7 (Homo sapiens) (Q8TDX7 whole entry, looked up): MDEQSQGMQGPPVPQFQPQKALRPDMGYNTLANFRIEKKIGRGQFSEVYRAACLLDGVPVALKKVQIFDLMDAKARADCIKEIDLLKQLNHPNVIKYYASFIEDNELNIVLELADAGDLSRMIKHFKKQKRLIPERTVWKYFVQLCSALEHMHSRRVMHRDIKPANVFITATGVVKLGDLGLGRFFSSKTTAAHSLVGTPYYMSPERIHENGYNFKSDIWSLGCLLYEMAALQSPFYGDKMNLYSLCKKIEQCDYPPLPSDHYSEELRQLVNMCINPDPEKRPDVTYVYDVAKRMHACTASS

[27] = target: Leukocyte tyrosine kinase receptor (Homo sapiens) (UniProt P29376); settings: Compound concentration 1.0 uM
[28] = target: 5-hydroxytryptamine receptor 2C (Homo sapiens) (UniProt P28335); settings: Compound concentration 10.0 uM
[29] = target: Phosphatidylinositol 4-kinase type 2-alpha (Homo sapiens) (UniProt Q9BTU6); settings: Compound concentration 1.0 uM
[30] = target: Fibroblast growth factor receptor 4 (Homo sapiens) (UniProt P22455); settings: Compound concentration 1.0 uM
[31] = target: Interleukin-1 receptor-associated kinase 4 (Homo sapiens) (UniProt Q9NWZ3)
Sequence of Interleukin-1 receptor-associated kinase 4 (Homo sapiens) (Q9NWZ3 whole entry): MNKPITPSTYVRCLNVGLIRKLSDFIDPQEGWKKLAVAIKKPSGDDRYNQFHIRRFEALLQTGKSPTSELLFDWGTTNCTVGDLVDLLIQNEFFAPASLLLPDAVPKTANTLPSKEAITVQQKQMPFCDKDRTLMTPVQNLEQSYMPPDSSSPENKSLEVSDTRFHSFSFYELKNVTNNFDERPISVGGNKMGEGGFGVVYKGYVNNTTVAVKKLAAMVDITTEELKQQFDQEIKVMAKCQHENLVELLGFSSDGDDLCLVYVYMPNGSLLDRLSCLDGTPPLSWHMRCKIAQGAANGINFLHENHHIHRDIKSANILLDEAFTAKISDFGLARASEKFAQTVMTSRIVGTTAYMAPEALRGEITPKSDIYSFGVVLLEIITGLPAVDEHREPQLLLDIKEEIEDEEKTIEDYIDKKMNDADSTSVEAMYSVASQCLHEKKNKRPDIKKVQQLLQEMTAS

[32] = target: Serotonin 1 (5-HT1) receptor (Rattus norvegicus) (UniProt P28564+P30940+P19327+P28565); experiment: 5HT1/R Eurofins SafetyScreen44 (BI); type: protein assay
[33] = target: Angiopoietin-1 receptor (Homo sapiens) (UniProt Q02763)
Sequence of Angiopoietin-1 receptor (Homo sapiens) (Q02763 whole entry): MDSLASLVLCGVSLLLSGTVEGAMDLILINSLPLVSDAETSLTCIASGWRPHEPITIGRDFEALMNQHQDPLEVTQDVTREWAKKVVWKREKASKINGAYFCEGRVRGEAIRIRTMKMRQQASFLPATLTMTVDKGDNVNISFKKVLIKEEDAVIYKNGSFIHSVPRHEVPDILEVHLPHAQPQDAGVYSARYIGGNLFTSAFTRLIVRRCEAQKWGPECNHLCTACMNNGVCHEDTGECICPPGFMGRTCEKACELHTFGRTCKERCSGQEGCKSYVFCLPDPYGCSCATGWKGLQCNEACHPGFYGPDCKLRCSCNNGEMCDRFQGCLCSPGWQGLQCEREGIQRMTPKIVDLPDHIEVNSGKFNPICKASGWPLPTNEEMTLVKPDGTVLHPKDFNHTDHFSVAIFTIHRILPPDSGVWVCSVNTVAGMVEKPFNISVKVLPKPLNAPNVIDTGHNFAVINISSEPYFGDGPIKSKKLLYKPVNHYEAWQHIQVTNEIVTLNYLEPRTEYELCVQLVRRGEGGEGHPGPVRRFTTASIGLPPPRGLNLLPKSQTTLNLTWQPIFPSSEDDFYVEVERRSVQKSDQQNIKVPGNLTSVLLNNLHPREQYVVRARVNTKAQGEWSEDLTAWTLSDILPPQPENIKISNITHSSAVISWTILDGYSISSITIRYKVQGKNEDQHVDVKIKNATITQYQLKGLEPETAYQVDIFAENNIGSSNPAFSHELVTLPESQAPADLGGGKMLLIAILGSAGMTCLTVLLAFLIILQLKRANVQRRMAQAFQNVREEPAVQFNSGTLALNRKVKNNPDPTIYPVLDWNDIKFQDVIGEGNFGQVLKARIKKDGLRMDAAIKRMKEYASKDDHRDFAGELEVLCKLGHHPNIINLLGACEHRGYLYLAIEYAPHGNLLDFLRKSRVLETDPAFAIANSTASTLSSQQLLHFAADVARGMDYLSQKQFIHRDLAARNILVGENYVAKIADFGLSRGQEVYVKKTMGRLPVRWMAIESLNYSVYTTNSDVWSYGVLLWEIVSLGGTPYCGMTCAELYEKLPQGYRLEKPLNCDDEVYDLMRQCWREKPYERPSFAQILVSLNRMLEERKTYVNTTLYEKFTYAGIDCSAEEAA

[34] = target: Non-receptor tyrosine-protein kinase TNK1 (Homo sapiens) (UniProt Q13470); settings: Compound concentration 1.0 uM
[35] = target: Serine/threonine-protein kinase WNK2 (Homo sapiens) (UniProt Q9Y3S1); experiment: WNK2 Invitrogen Lab (UK) kinase screen (BI); settings: Compound concentration 1.0 uM
[36] = target: Serine/threonine-protein kinase SIK2 (Homo sapiens) (UniProt Q9H0K1); experiment: SNF1LK2 Invitrogen Lab (UK) kinase screen (BI); settings: Compound concentration 1.0 uM
[37] = target: Phospholipase A2 (Sus scrofa) (UniProt A0A8D1VEY7); settings: Compound concentration 10.0 uM
[38] = target: Sodium-dependent dopamine transporter (Homo sapiens, UniProt Q01959); settings: Compound concentration 10.0 uM
[39] = target: Focal adhesion kinase 1 (Homo sapiens) (UniProt Q05397); settings: Compound concentration 1.0 uM
[40] = target: Mitogen-activated protein kinase kinase kinase kinase 3 (Homo sapiens) (UniProt Q8IVH8); settings: Compound concentration 1.0 uM

Structure (SMILES): CCC(F)(F)c1cc(N2CCC(S(C)(=O)=O)CC2)nc2sc(C(N)=O)c(N)c12 [BI-605906]
- inhibition [1]: -8.38%
- residual activity [2]: 95%
- residual activity [3]: 86%
- residual activity [4]: 103%
- residual activity ([5]; Compound concentration 0.001 uM): 101%
- residual activity ([5]; Compound concentration 1.0 uM): 13%
- residual activity ([5]; Compound concentration 20.0 uM): 4%
- residual activity [6]: 79%
- residual activity [7]: 100%
- residual activity [8]: 19.3%
- IC50 [9]: 6.5 µM (not active)
- residual activity [10]: 101%
- residual activity [11]: 95%
- residual activity [12]: 112%
- residual activity [13]: 90%
- residual activity [14]: 82%
- residual activity [15]: 99%
- residual activity [16]: 98%
- residual activity [17]: 112%
- residual activity [18]: 91%
- residual activity [19]: 109%
- residual activity ([20]; Compound concentration 1.0 uM): 58%
- residual activity ([20]; Compound concentration 10.0 uM): 14%
- residual activity [21]: 103%
- residual activity [22]: 99%
- residual activity [23]: 95%
- residual activity ([24]; Compound concentration 1.0 uM): 96%
- residual activity ([24]; Compound concentration 10.0 uM): 94%
- residual activity [25]: 96%
- residual activity [26]: 104%
- residual activity [27]: 99%
- inhibition [28]: -5.41%
- residual activity [29]: 92%
- residual activity [30]: 96%
- residual activity ([31]; Compound concentration 1.0 uM): 100%
- residual activity ([31]; Compound concentration 10.0 uM): 90%
- residual activity ([32]; Compound concentration 10.0 uM): 119%
- residual activity ([32]; Compound concentration 100.0 uM): 107%
- residual activity ([33]; Compound concentration 1.0 uM): 93%
- residual activity ([33]; Compound concentration 10.0 uM): 82%
- residual activity [34]: 92%
- residual activity [35]: 86%
- residual activity [36]: 84%
- residual activity [37]: 96%
- residual activity [38]: 105%
- residual activity [39]: 87%
- residual activity [40]: 93%

Reference: ChEMBL document CHEMBL4800722, “Data for DCP probe BI 605906” (2021)
